Experiments:
Assay in all cases: In vitro antibacterial activity, agar dilution MIC
Assay type in all cases: cell-based
Candida albicans CCH 442 = Candida albicans CCH 442 (organism code TT); BHI agar, 35-37 °C, 20 to 24 hours; unit assumed
Method: (§1) Representative compounds of the present invention were assayed in vitro for antibacterial activity as follows: Twelve petri dishes containing successive aqueous dilutions of the test compound mixed with 10 mL of sterilized Brain Heart infusion (BHI) agar (Difco 0418-01-5) were prepared. Each plate was inoculated with 1:100 (or 1:10 for slow-growing strains, such as Micrococcus and Streptococcus) dilutions of up to 32 different microorganisms, using a Steers replicator block. […] In addition, a control plate, using BHI agar containing no test compound, was prepared and incubated at the beginning and end of each test.
(§2) An additional plate containing a compound having known susceptibility patterns for the organisms being tested and belonging to the same antibiotic class as the test compound was also prepared and incubated as a further control, as well as to provide test-to-test comparability.
(§3) After incubation, each plate was visually inspected. The minimum inhibitory concentration (MIC) was defined as the lowest concentration of drug yielding no growth, a slight haze, or sparsely isolated colonies on the inoculum spot as compared to the growth control.

[1] = tested on: Enterococcus faecium ATCC 8043; conditions: Enterococcus faecium ATCC 8043 (organism code II); BHI agar, 35-37 °C, 20 to 24 hours; unit assumed
Method: as §1, §2, §3

Escherichia coli DC-2 = Escherichia coli DC-2 (organism code SS); BHI agar, 35-37 °C, 20 to 24 hours; unit assumed
Method: as §1, §2, §3

Escherichia coli JUHL = Escherichia coli JUHL (organism code QQ); BHI agar, 35-37 °C, 20 to 24 hours; unit assumed
Method: as §1, §2, §3

Escherichia coli SS = Escherichia coli SS (organism code RR); BHI agar, 35-37 °C, 20 to 24 hours; unit assumed
Method: as §1, §2, §3

[2] = tested on: Haemophilis Influenzae DILL AMP R; conditions: Haemophilis Influenzae DILL AMP R (organism code WW); BHI agar, 35-37 °C, 20 to 24 hours; unit assumed
Method: as §1, §2, §3

[3] = tested on: Micrococcus luteus ATCC 4698; conditions: Micrococcus luteus ATCC 4698 (organism code PP); BHI agar, 35-37 °C, 20 to 24 hours; unit assumed
Method: as §1, §2, §3

[4] = tested on: Micrococcus luteus ATCC 9341; conditions: Micrococcus luteus ATCC 9341 (organism code OO); BHI agar, 35-37 °C, 20 to 24 hours; unit assumed
Method: as §1, §2, §3

[5] = tested on: Mycobacterium smegmatis ATCC 114; conditions: Mycobacterium smegmatis ATCC 114 (organism code UU); BHI agar, 35-37 °C, 20 to 24 hours; unit assumed
Method: as §1, §2, §3

[6] = tested on: Nocardia Asteroides ATCC9970; conditions: Nocardia Asteroides ATCC9970 (organism code VV); BHI agar, 35-37 °C, 20 to 24 hours; unit assumed
Method: as §1, §2, §3

[7] = tested on: Staphylococcus aureus 1775; conditions: Staphylococcus aureus 1775 (organism code GG); BHI agar, 35-37 °C, 20 to 24 hours; unit assumed
Method: as §1, §2, §3

[8] = tested on: Staphylococcus aureus A-5278; conditions: Staphylococcus aureus A-5278 (organism code CC); BHI agar, 35-37 °C, 20 to 24 hours; unit assumed
Method: as §1, §2, §3

[9] = tested on: Staphylococcus aureus A5177; conditions: Staphylococcus aureus A5177 (organism code BB); BHI agar, 35-37 °C, 20 to 24 hours; unit assumed
Method: as §1, §2, §3

[10] = tested on: Staphylococcus aureus ATCC 6538P; conditions: Staphylococcus aureus ATCC 6538P (organism code AA); BHI agar, 35-37 °C, 20 to 24 hours; unit assumed
Method: as §1, §2, §3

[11] = tested on: Staphylococcus aureus CMX 553; conditions: Staphylococcus aureus CMX 553 (organism code FF); BHI agar, 35-37 °C, 20 to 24 hours; unit assumed
Method: as §1, §2, §3

[12] = tested on: Staphylococcus aureus CMX 642A; conditions: Staphylococcus aureus CMX 642A (organism code DD); BHI agar, 35-37 °C, 20 to 24 hours; unit assumed
Method: as §1, §2, §3

[13] = tested on: Staphylococcus aureus NCTC10649M; conditions: Staphylococcus aureus NCTC10649M (organism code EE); BHI agar, 35-37 °C, 20 to 24 hours; unit assumed
Method: as §1, §2, §3

[14] = tested on: Staphylococcus epidermidis 3519; conditions: Staphylococcus epidermidis 3519 (organism code HH); BHI agar, 35-37 °C, 20 to 24 hours; unit assumed
Method: as §1, §2, §3

[15] = tested on: Streptococcus Pheumoniae 5649; conditions: Streptococcus Pheumoniae 5649 (organism code ZZA); BHI agar, 35-37 °C, 20 to 24 hours; unit assumed
Method: as §1, §2, §3

[16] = tested on: Streptococcus Pheumoniae 5979; conditions: Streptococcus Pheumoniae 5979 (organism code ZZ); BHI agar, 35-37 °C, 20 to 24 hours; unit assumed
Method: as §1, §2, §3

[17] = tested on: Streptococcus Pheumoniae ATCC6303; conditions: Streptococcus Pheumoniae ATCC6303 (organism code XX); BHI agar, 35-37 °C, 20 to 24 hours; unit assumed
Method: as §1, §2, §3

[18] = tested on: Streptococcus Pheumoniae GYR 1171; conditions: Streptococcus Pheumoniae GYR 1171 (organism code YY); BHI agar, 35-37 °C, 20 to 24 hours; unit assumed
Method: as §1, §2, §3

[19] = tested on: Streptococcus agalactiae CMX 508; conditions: Streptococcus agalactiae CMX 508 (organism code KK); BHI agar, 35-37 °C, 20 to 24 hours; unit assumed
Method: as §1, §2, §3

[20] = tested on: Streptococcus bovis A-5169; conditions: Streptococcus bovis A-5169 (organism code JJ); BHI agar, 35-37 °C, 20 to 24 hours; unit assumed
Method: as §1, §2, §3

[21] = tested on: Streptococcus pyogenes EES61; conditions: Streptococcus pyogenes EES61 (organism code LL); BHI agar, 35-37 °C, 20 to 24 hours; unit assumed
Method: as §1, §2, §3

[22] = tested on: Streptococcus pyogenes PIU 2548; conditions: Streptococcus pyogenes PIU 2548 (organism code NN); BHI agar, 35-37 °C, 20 to 24 hours; unit assumed
Method: as §1, §2, §3

[23] = tested on: Streptococcus pyogenes 930; conditions: Streptococcus pyogenes 930 (organism code MM); BHI agar, 35-37 °C, 20 to 24 hours; unit assumed
Method: as §1, §2, §3

Row | SMILES | MIC (Candida albicans CCH 442) | MIC [1] | MIC (Escherichia coli DC-2) | MIC (Escherichia coli JUHL) | MIC (Escherichia coli SS) | MIC [3] | MIC [4] | MIC [5] | MIC [6] | MIC [7] | MIC [8] | MIC [9] | MIC [10] | MIC [11] | MIC [12] | MIC [13] | MIC [14] | MIC [15] | MIC [16] | MIC [17] | also measured
1 | CC[C@H]1OC(=O)[C@H](C)C(=O)[C@H](C)[C@@H](O[C@@H]2O[C@H](C)C[C@H](N(C)C(C)=O)[C@H]2O)[C@](C)(OCC=Cc2cnc3ccccc3c2)C[C@@H](C)C(=O)[C@H](C)[C@H]2NC(=O)O[C@@]21C [Example 4, Compound of Formula (II); R is -CH2CH=CH-(3-quinolyl), R^P is H, W is absent, R^w is H, R^1 is acetyl, R^2 is CH3-] | > 100 µg/mL | 1.56 µg/mL | > 100 µg/mL | > 100 µg/mL | 100 µg/mL | 3.1 µg/mL | 0.39 µg/mL | 25 µg/mL | 12.5 µg/mL | > 100 µg/mL | > 100 µg/mL | 6.2 µg/mL | 6.2 µg/mL | 6.2 µg/mL | 6.2 µg/mL | 6.2 µg/mL | 6.2 µg/mL | 0.25 µg/mL | 128 µg/mL | 0.25 µg/mL | MIC [2]: > 128 µg/mL; MIC [18]: 0.125 µg/mL; MIC [19]: 0.39 µg/mL; MIC [20]: 0.2 µg/mL; MIC [21]: 0.39 µg/mL; MIC [22]: 1.56 µg/mL
2 | CC[C@H]1OC(=O)[C@H](C)C(=O)[C@H](C)[C@@H](O[C@@H]2O[C@H](C)C[C@H](N(C)C3CC3)[C@H]2O)[C@](C)(OCC=Cc2cnc3ccccc3c2)C[C@@H](C)C(=O)[C@H](C)[C@H]2NC(=O)O[C@@]21C [Example 13, Compound of Formula (II); R is -CH2CH=CH-(3-quinolyl), R^p is H, W is absent, R^w is H, R^1 is cyclopropyl, R^2 is CH3] | 50 µg/mL | 0.39 µg/mL | > 100 µg/mL | > 100 µg/mL | 3.1 µg/mL | 0.78 µg/mL | 0.39 µg/mL | 3.1 µg/mL | 3.1 µg/mL | > 100 µg/mL | > 100 µg/mL | 3.1 µg/mL | 1.56 µg/mL | 1.56 µg/mL | 1.56 µg/mL | 3.1 µg/mL | 3.1 µg/mL | 0.25 µg/mL | 16 µg/mL | 0.03 µg/mL | MIC [18]: 0.03 µg/mL; MIC [19]: 0.2 µg/mL; MIC [20]: 0.2 µg/mL; MIC [23]: > 100 µg/mL; MIC [21]: 0.1 µg/mL; MIC [22]: 0.39 µg/mL
3 | CC[C@H]1OC(=O)[C@H](C)C(=O)[C@H](C)[C@@H](O[C@@H]2O[C@H](C)C[C@H](N(C)Cc3cccnc3)[C@H]2O)[C@](C)(OCC=Cc2cnc3ccccc3c2)C[C@@H](C)C(=O)[C@H](C)[C@H]2NC(=O)O[C@@]21C [Example 14, Compound of Formula (II); R is -CH2CH=CH-(3-quinolyl), R^p is H, W is absent, R^w is H, R^1 is CH2-(3-pyridyl), R^2 is CH3] | > 100 µg/mL | 0.05 µg/mL | > 100 µg/mL | > 100 µg/mL | 0.78 µg/mL | 0.39 µg/mL | 0.05 µg/mL | 0.39 µg/mL | 0.2 µg/mL | > 100 µg/mL | > 100 µg/mL | 0.39 µg/mL | 0.39 µg/mL | 0.39 µg/mL | 0.39 µg/mL | 0.39 µg/mL | 0.39 µg/mL | 0.25 µg/mL | > 128 µg/mL | 0.03 µg/mL | MIC [18]: 0.03 µg/mL; MIC [19]: 0.2 µg/mL; MIC [20]: 0.05 µg/mL; MIC [23]: 50 µg/mL; MIC [21]: 0.05 µg/mL; MIC [22]: 0.39 µg/mL

Reference: EP1025114B1, “3'-N-MODIFIED 6-O-SUBSTITUTED ERYTHROMYCIN KETOLIDE DERIVATIVES HAVING ANTIBACTERIAL ACTIVITY” (priority 1997, dated 1999)
